Assays:
[1] = system: pruritus and skin lesions associated with allergic dermatitis in dogs; experiment: Four-arm, blinded, randomized, placebo-controlled study: control of pruritus and skin lesions associated with allergic dermatitis in dogs; format: in vivo, dog
Method: This study evaluated 2-(3-(4-(7H-pyrrolo[2,3-d]pyrimidin-4-yl)-1H-pyrazol-1-yl)-1-(cyclopropylsulfonyl)azetidin-3-yl)acetonitrile for control of pruritus and skin lesions associated with allergic dermatitis in dogs.
Oral tablets were prepared containing Form II 2-(3-(4-(7H-pyrrolo[2,3-d]pyrimidin-4-yl)-1H-pyrazol-1-yl)-1-(cyclopropylsulfonyl)azetidin-3-yl)acetonitrile, as follows. […] The tablet blends were pressed giving tablet cores containing 2.4 mg, 3.6 mg, 5.4 mg, and 16 mg of crystal Form II 2-(3-(4-(7H-pyrrolo[2,3-d]pyrimidin-4-yl)-1H-pyrazol-1-yl)-1-(cyclopropylsulfonyl)azetidin-3-yl)acetonitrile, as well as a placebo core. The tablet cores were coated with a mixture containing water and Opadry 20A150011 Red, thereby giving the final oral tablets for the study.
A four-arm, blinded, randomized, placebo-controlled study was conducted to assess the efficacy of daily administration of 2-(3-(4-(7H-pyrrolo[2,3-d]pyrimidin-4-yl)-1H-pyrazol-1-yl)-1-(cyclopropylsulfonyl)azetidin-3-yl)acetonitrile for control of pruritus and skin lesions associated with allergic dermatitis in dogs. Subjects were randomized to one of the following treatment arms: API-containing Tablets, 0.25-0.40 mg/kg Body Weight; API-containing Tablets, 0.40-0.60 mg/kg Body Weight; API-containing Tablets, 0.60-0.80 mg/kg Body Weight; and Placebo Tablets, 0.0 mg/kg Body Weight.
Dogs enrolled in the study received once daily treatment for approximately 28 days. Baseline data (clinical history, concomitant therapies, body weight, physical examinations and assessments of pruritus and atopic dermatitis) were collected for each dog at enrollment (Day 0). Additional health assessments, physical examinations, body weight measurements, assessments of pruritus and atopic dermatitis, and collection of blood samples for hematology, serum chemistry and pharmacokinetic (PK) analysis occurred consistent with standard testing protocols.
The primary effectiveness variable was treatment success. A treatment success was defined as a 2 unit or more reduction from baseline on the 10-unit owner-assessed pruritus Visual-Analog Scale (VAS) in at least 70% of the first 7 treatment days (i.e., in at least 5 of the first 7 treatment days). Dogs withdrawn from the study within the first 7 days of treatment due to a perceived lack of effectiveness were considered treatment failures.
Random effects were fit for site and site treatment with a variance component covariance structure and a compound symmetry covariance structure was fit for individual dogs.

[2] = Particle size distribution of micronized (jet-milled) material, laser diffraction; format: physicochemical
Method: Micronization was begun with a short “setup” run of approximately 300 grams was performed using a feed rate of 9.6 kg/hr. Venturi/mill pressures were 10 psi.
Particle size distribution method of 2-(3-(4-(7H-pyrrolo[2,3-d]pyrimidin-4-yl)-1H-pyrazol-1-yl)-1-(cyclopropylsulfonyl)azetidin-3-yl)acetonitrile.
Method: 150 to 175 mg 2-(3-(4-(7H-pyrrolo[2,3-d]pyrimidin-4-yl)-1H-pyrazol-1-yl)-1-(cyclopropylsulfonyl)azetidin-3-yl)acetonitrile sample are dispersed with 1 ml Tween20/water mixture (10/90 v/v %) to a paste in a beaker. The entire paste is then transferred to the measuring cuvette (beaker is rinsed out with water for complete sample transfer) and dispersed in 300 ml water. To homogenize the suspension in the measuring cuvette, the pump speed is set to 600 rpm. Before measurement the sample is stirred for 30 seconds. The optical concentration should be in the range of approximately 15 to 20% but the value depends strongly on the particle size distribution in the sample. If the 15 to 20% range is not reached either more sample paste must be added or the sample has to be diluted with water.
Equipment: a Helos laser diffractometer from Sympatec is used. Suspensions are measured using a Quixel cell. Dry measurement is done using the Rodos unit. Evaluation is done using the Paqxos software.

[3] = Example 50 setup run, feed rate 9.6 kg/hr, venturi/mill pressures 10 psi
[4] = PSD method of Example 51, Helos laser diffractometer, suspension in water/Tween20

dv10 [2, 3]	dv50 [2, 3]	dv90 [2, 3]	dv10 [2, 4]	dv50 [2, 4]	dv90 [2, 4]	SMILES	primary endpoint for treatment success ([1]; 0.6-0.8 mg/kg once daily)	Treatment Success LSMean (response rate) ([1]; 0.60-0.80 mg/kg once daily oral tablets containing Form II, success = 2 unit or more reduction on owner pruritus VAS in at least 5 of first 7 treatment days, generalized linear mixed model)	improvement in lesion scores ([1]; 0.6-0.8 mg/kg once daily, day 28)	improvement in pruritus ([1]; 0.6-0.8 mg/kg once daily, from first dose)
						N#CCC1(n2cc(-c3ncnc4[nH]ccc34)cn2)CN(S(=O)(=O)C2CC2)C1 [2-(3-(4-(7H-pyrrolo[2,3-d]pyrimidin-4-yl)-1H-pyrazol-1-yl)-1-(cyclopropylsulfonyl)azetidin-3-yl)acetonitrile]	achieved the primary endpoint for treatment success	0.7188	significant improvement in lesion scores at day 28	significant improvements in pruritus from first dose
4 µm	20 µm	53 µm	4 µm	20 µm	51 µm	N#CCC1(n2cc(-c3ncnc4[nH]ccc34)cn2)CN(S(=O)(=O)C2CC2)C1 [sample “I”, 2-(3-(4-(7H-pyrrolo[2,3-d]pyrimidin-4-yl)-1H-pyrazol-1-yl)-1-(cyclopropylsulfonyl)azetidin-3-yl)acetonitrile]				

From patent US12714674B2, “JAK inhibitors having a specific particle size distribution” (Elanco US Inc., priority 2020, dated 2026)
